# Assay results as given in ChEMBL document CHEMBL1201862, “PubChem BioAssay data set” (2004).
#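 Assay format: 96-well plates, 48-hour exposure. Abbreviation: GI50, concentration required for 50% inhibition of growth.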 Activity calls are given as the source filed them. No stated cut-off is given here; in the data, active = GI50 up to about 1.1 µM and inactive = higher.
# What was measured:
# Assay in all cases: NCI anticancer screen, dose series, 48 h
# 786-0 = tested on: 786-0
# A498 = tested on: A498
# A549 = tested on: A549
# ACHN = tested on: ACHN
# BT-549 = tested on: BT-549
# CAKI-1 = tested on: CAKI-1
# CCRF-CEM = tested on: CCRF-CEM
# COLO 205 = tested on: COLO 205
# DU-145 = tested on: DU-145
# EKVX = tested on: EKVX
# HCC 2998 = tested on: HCC 2998
# HCT-116 = tested on: HCT-116
# HCT-15 = tested on: HCT-15
# HL-60 = tested on: HL-60
# HOP-62 = tested on: HOP-62
# HOP-92 = tested on: HOP-92
# HT-29 = tested on: HT-29
# Hs-578T = tested on: Hs-578T
# IGROV-1 = tested on: IGROV-1
# K562 = tested on: K562
# KM12 = tested on: KM12
# LOX IMVI = tested on: LOX IMVI
# M14 = tested on: M14
# MCF7 = tested on: MCF7
# MDA-MB-231 = tested on: MDA-MB-231
# MDA-MB-435 = tested on: MDA-MB-435
# MDA-N = tested on: MDA-N
# MOLT-4 = tested on: MOLT-4
# Malme-3M = tested on: Malme-3M
# NCI-H226 = tested on: NCI-H226
# NCI-H23 = tested on: NCI-H23
# NCI-H460 = tested on: NCI-H460
# NCI-H522 = tested on: NCI-H522
# OVCAR-3 = tested on: OVCAR-3
# OVCAR-4 = tested on: OVCAR-4
# OVCAR-5 = tested on: OVCAR-5
# OVCAR-8 = tested on: OVCAR-8
# PC-3 = tested on: PC-3
# RPMI-8226 = tested on: RPMI-8226
# SF-268 = tested on: SF-268
# SF-295 = tested on: SF-295
# SF-539 = tested on: SF-539
# SK-MEL-28 = tested on: SK-MEL-28
# SK-MEL-2 = tested on: SK-MEL-2
# SK-MEL-5 = tested on: SK-MEL-5
# SK-OV-3 = tested on: SK-OV-3
# SNB-19 = tested on: SNB-19
# SNB-75 = tested on: SNB-75
# SR = tested on: SR
# SW-620 = tested on: SW-620
# T47D = tested on: T47D
# TK-10 = tested on: TK-10
# U-251 = tested on: U-251
# UACC-257 = tested on: UACC-257
# UACC-62 = tested on: UACC-62
# UO-31 = tested on: UO-31
# RXF 393 = tested on: RXF 393
# SN12C = tested on: SN12C
smiles,measurement,setting,value
O=C(Nc1ccc2ccccc2c1)Nn1cnnc1,GI50,786-0,> 100 µM (inactive)
same,GI50,A498,> 100 µM (inactive)
same,GI50,A549,> 100 µM (inactive)
same,GI50,ACHN,> 100 µM (inactive)
same,GI50,BT-549,> 100 µM (inactive)
same,GI50,CAKI-1,> 100 µM (inactive)
same,GI50,CCRF-CEM,> 100 µM (inactive)
same,GI50,COLO 205,> 100 µM (inactive)
same,GI50,DU-145,> 100 µM (inactive)
same,GI50,EKVX,> 100 µM (inactive)
same,GI50,HCC 2998,> 100 µM (inactive)
same,GI50,HCT-116,> 100 µM (inactive)
same,GI50,HCT-15,> 100 µM
same,GI50,HL-60,> 100 µM (inactive)
same,GI50,HOP-62,> 100 µM (inactive)
same,GI50,HOP-92,> 100 µM (inactive)
same,GI50,HT-29,> 100 µM (inactive)
same,GI50,Hs-578T,> 100 µM (inactive)
same,GI50,IGROV-1,> 100 µM (inactive)
same,GI50,K562,> 100 µM (inactive)
same,GI50,KM12,> 100 µM (inactive)
same,GI50,LOX IMVI,> 100 µM (inactive)
same,GI50,M14,> 100 µM (inactive)
same,GI50,MCF7,> 100 µM (inactive)
same,GI50,MDA-MB-231,> 100 µM (inactive)
same,GI50,MDA-MB-435,> 100 µM (inactive)
same,GI50,MDA-N,> 100 µM (inactive)
same,GI50,MOLT-4,> 100 µM (inactive)
same,GI50,Malme-3M,> 100 µM (inactive)
same,GI50,NCI-H226,35.3 µM (inactive)
same,GI50,NCI-H23,> 100 µM (inactive)
same,GI50,NCI-H460,> 100 µM (inactive)
same,GI50,NCI-H522,> 100 µM (inactive)
same,GI50,OVCAR-3,> 100 µM (inactive)
same,GI50,OVCAR-4,> 100 µM (inactive)
same,GI50,OVCAR-5,> 100 µM (inactive)
same,GI50,OVCAR-8,> 100 µM (inactive)
same,GI50,PC-3,> 100 µM (inactive)
same,GI50,RPMI-8226,> 100 µM (inactive)
same,GI50,SF-268,> 100 µM (inactive)
same,GI50,SF-295,> 100 µM (inactive)
same,GI50,SF-539,> 100 µM (inactive)
same,GI50,SK-MEL-28,> 100 µM (inactive)
same,GI50,SK-MEL-2,> 100 µM (inactive)
same,GI50,SK-MEL-5,> 100 µM (inactive)
same,GI50,SK-OV-3,> 100 µM (inactive)
same,GI50,SNB-19,> 100 µM (inactive)
same,GI50,SNB-75,> 100 µM (inactive)
same,GI50,SR,> 100 µM (inactive)
same,GI50,SW-620,> 100 µM (inactive)
same,GI50,T47D,> 100 µM (inactive)
same,GI50,TK-10,> 100 µM (inactive)
same,GI50,U-251,> 100 µM (inactive)
same,GI50,UACC-257,> 100 µM (inactive)
same,GI50,UACC-62,> 100 µM (inactive)
same,GI50,UO-31,80.4 µM (inactive)
CC1(C)[C@H]2CC[C@]1(C)[C@H](OC(=O)NNC(=O)O[C@@H]1C[C@@H]3CC[C@@]1(C)C3(C)C)C2,GI50,786-0,17.8 µM (inactive)
same,GI50,A498,16.3 µM (inactive)
same,GI50,A549,10.4 µM (inactive)
same,GI50,ACHN,18.7 µM (inactive)
same,GI50,BT-549,19.7 µM (inactive)
same,GI50,CAKI-1,15.5 µM (inactive)
same,GI50,CCRF-CEM,20.3 µM (inactive)
same,GI50,COLO 205,12.3 µM (inactive)
same,GI50,DU-145,16.3 µM (inactive)
same,GI50,EKVX,12.6 µM (inactive)
same,GI50,HCC 2998,14.1 µM (inactive)
same,GI50,HCT-116,10.9 µM (inactive)
same,GI50,HCT-15,12.5 µM
same,GI50,HL-60,7.01 µM (inactive)
same,GI50,HOP-62,14.9 µM (inactive)
same,GI50,HOP-92,15.1 µM (inactive)
same,GI50,HT-29,5.7 µM (inactive)
same,GI50,Hs-578T,14.2 µM (inactive)
same,GI50,IGROV-1,15.4 µM (inactive)
same,GI50,K562,3.35 µM (inactive)
same,GI50,KM12,15.7 µM (inactive)
same,GI50,LOX IMVI,26.7 µM (inactive)
same,GI50,M14,15.5 µM (inactive)
same,GI50,MCF7,10.9 µM (inactive)
same,GI50,MDA-MB-231,13 µM (inactive)
same,GI50,MDA-MB-435,21.2 µM (inactive)
same,GI50,MDA-N,11.6 µM (inactive)
same,GI50,MOLT-4,7.29 µM (inactive)
same,GI50,Malme-3M,16.1 µM (inactive)
same,GI50,NCI-H226,16.7 µM (inactive)
same,GI50,NCI-H23,14.9 µM (inactive)
same,GI50,NCI-H460,13.7 µM (inactive)
same,GI50,NCI-H522,13 µM (inactive)
same,GI50,OVCAR-3,11.9 µM (inactive)
same,GI50,OVCAR-4,11.4 µM (inactive)
same,GI50,OVCAR-5,17.5 µM (inactive)
same,GI50,RPMI-8226,10.5 µM (inactive)
same,GI50,RXF 393,10.6 µM (inactive)
same,GI50,SF-268,15.6 µM (inactive)
same,GI50,SF-295,13.8 µM (inactive)
same,GI50,SF-539,14.4 µM (inactive)
same,GI50,SK-MEL-28,24.3 µM (inactive)
same,GI50,SK-MEL-2,16.8 µM (inactive)
same,GI50,SK-MEL-5,12.6 µM (inactive)
same,GI50,SK-OV-3,14.3 µM (inactive)
same,GI50,SN12C,12.2 µM (inactive)
same,GI50,SNB-19,19.5 µM (inactive)
same,GI50,SNB-75,13.6 µM (inactive)
same,GI50,SW-620,19.4 µM (inactive)
same,GI50,T47D,7.1 µM (inactive)
same,GI50,TK-10,20.6 µM (inactive)
same,GI50,U-251,16 µM (inactive)
same,GI50,UACC-257,16.3 µM (inactive)
same,GI50,UACC-62,17.4 µM (inactive)
same,GI50,UO-31,15 µM (inactive)
CC(=O)C(CN1C(=O)c2ccccc2C1=O)C(C)=O,GI50,786-0,> 100 µM (inactive)
same,GI50,A498,> 100 µM (inactive)
same,GI50,A549,> 100 µM (inactive)
same,GI50,ACHN,> 100 µM (inactive)
same,GI50,BT-549,> 100 µM (inactive)
same,GI50,CAKI-1,> 100 µM (inactive)
same,GI50,COLO 205,> 100 µM (inactive)
same,GI50,DU-145,> 100 µM (inactive)
same,GI50,EKVX,> 100 µM (inactive)
same,GI50,HCC 2998,> 100 µM (inactive)
same,GI50,HCT-116,> 100 µM (inactive)
same,GI50,HCT-15,> 100 µM
same,GI50,HOP-62,> 100 µM (inactive)
same,GI50,HOP-92,> 100 µM (inactive)
same,GI50,HT-29,> 100 µM (inactive)
same,GI50,Hs-578T,> 100 µM (inactive)
same,GI50,IGROV-1,> 100 µM (inactive)
same,GI50,K562,> 100 µM (inactive)
same,GI50,M14,> 100 µM (inactive)
same,GI50,MCF7,> 100 µM (inactive)
same,GI50,MDA-MB-231,> 100 µM (inactive)
same,GI50,MDA-MB-435,> 100 µM (inactive)
same,GI50,MDA-N,> 100 µM (inactive)
same,GI50,NCI-H226,> 100 µM (inactive)
same,GI50,NCI-H23,> 100 µM (inactive)
same,GI50,NCI-H460,> 100 µM (inactive)
same,GI50,NCI-H522,> 100 µM (inactive)
same,GI50,OVCAR-3,> 100 µM (inactive)
same,GI50,OVCAR-4,> 100 µM (inactive)
same,GI50,OVCAR-5,> 100 µM (inactive)
same,GI50,OVCAR-8,> 100 µM (inactive)
same,GI50,PC-3,> 100 µM (inactive)
same,GI50,RXF 393,23.1 µM (inactive)
same,GI50,SF-268,> 100 µM (inactive)
same,GI50,SF-295,> 100 µM (inactive)
same,GI50,SF-539,> 100 µM (inactive)
same,GI50,SK-MEL-28,> 100 µM (inactive)
same,GI50,SK-MEL-2,> 100 µM (inactive)
same,GI50,SK-MEL-5,> 100 µM (inactive)
same,GI50,SK-OV-3,> 100 µM (inactive)
same,GI50,SN12C,> 100 µM (inactive)
same,GI50,SNB-19,> 100 µM (inactive)
same,GI50,SNB-75,> 100 µM (inactive)
same,GI50,SW-620,> 100 µM (inactive)
same,GI50,T47D,> 100 µM (inactive)
same,GI50,TK-10,> 100 µM (inactive)
same,GI50,U-251,> 100 µM (inactive)
same,GI50,UACC-257,> 100 µM (inactive)
same,GI50,UACC-62,> 100 µM (inactive)
same,GI50,UO-31,> 100 µM (inactive)
